Values joined by “and” are separate entries in the source; they are usually repeats but may differ in a detail not shown here. Equal values may be shown once. Active and inactive are the calls of the source.
What was measured:
[1] = biological target: T1, Alkaline phosphatase, tissue-nonspecific isozyme (Homo sapiens, UniProt P05186); experiment: potency against alkaline phosphatase TNAP – biochemical, luminescent, dose response, SAR follow-up (AID 1056)
T1 sequence (P05186 whole entry): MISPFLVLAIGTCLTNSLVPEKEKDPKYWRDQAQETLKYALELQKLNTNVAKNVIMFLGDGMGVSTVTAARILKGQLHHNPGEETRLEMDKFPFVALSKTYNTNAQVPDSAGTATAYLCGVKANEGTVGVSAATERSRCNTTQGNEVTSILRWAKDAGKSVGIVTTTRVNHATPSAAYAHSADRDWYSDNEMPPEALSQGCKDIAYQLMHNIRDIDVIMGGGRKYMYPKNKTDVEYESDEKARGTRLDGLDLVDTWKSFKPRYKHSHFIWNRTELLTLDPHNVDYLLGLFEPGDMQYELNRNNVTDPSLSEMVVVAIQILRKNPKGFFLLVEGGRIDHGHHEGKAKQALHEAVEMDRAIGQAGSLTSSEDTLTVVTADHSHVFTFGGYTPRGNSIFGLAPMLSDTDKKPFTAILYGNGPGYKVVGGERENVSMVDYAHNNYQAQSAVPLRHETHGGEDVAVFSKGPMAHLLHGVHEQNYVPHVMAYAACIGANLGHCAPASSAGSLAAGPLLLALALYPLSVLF

[2] = biological target: Glyceraldehyde-3-phosphate dehydrogenase (Homo sapiens, UniProt P04406)
Genome polyprotein = Genome polyprotein (dengue virus type 2, UniProt P29990); experiment: flavivirus cap methylation enzyme inhibition – biochemical, confirmation dose response, primary screen (AID 588689); assay type: functional
Vero [3] = experiment: viability of Vero cells under compound – cytotoxicity control for flavivirus capping enzyme inhibitors (AID 588742); assay type: functional; conditions: Chlorocebus sabaeus
Hexokinase HKDC1 = biological target: T2, Hexokinase HKDC1 (Homo sapiens, UniProt Q2TB90); experiment: inhibition of HKDC1 glucose phosphorylation – biochemical, W721R variant, dose response (AID 504729); assay type: functional
T2 sequence (Q2TB90 whole entry): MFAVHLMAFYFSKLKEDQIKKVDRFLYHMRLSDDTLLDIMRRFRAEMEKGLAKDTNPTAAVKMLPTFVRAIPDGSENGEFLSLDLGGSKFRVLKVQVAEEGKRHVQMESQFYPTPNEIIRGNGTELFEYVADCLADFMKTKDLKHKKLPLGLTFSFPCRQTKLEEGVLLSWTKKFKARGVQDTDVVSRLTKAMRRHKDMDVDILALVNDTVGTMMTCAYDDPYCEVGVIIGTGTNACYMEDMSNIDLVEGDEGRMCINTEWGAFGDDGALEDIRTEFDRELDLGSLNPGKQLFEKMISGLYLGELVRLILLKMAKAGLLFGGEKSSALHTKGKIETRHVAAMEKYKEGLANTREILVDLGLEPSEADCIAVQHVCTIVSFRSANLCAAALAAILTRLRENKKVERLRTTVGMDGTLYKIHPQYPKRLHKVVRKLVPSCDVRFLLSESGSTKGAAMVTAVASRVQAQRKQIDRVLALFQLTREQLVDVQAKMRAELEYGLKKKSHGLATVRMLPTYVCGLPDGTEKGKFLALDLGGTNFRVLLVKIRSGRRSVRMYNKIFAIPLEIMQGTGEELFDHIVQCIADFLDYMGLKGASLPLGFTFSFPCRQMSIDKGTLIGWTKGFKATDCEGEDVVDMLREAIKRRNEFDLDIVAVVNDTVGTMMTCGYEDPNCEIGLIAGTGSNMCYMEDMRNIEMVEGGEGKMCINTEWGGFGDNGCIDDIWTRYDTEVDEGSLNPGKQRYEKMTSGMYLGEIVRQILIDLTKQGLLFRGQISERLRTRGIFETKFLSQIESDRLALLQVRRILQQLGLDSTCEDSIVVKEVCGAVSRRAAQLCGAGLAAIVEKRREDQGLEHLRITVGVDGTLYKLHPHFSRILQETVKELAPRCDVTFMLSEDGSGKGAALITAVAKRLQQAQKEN

Vero [4] = experiment: cells; assay type: functional; conditions: Chlorocebus sabaeus
[5] = biological target: T3, Zinc finger protein mex-5 (Caenorhabditis elegans, UniProt Q9XUB2); experiment: potency of MEX-5 RNA-binding blockers – biochemical, C. elegans, fluorescence polarization, dose response (AID 1960)
T3 sequence (Q9XUB2 whole entry): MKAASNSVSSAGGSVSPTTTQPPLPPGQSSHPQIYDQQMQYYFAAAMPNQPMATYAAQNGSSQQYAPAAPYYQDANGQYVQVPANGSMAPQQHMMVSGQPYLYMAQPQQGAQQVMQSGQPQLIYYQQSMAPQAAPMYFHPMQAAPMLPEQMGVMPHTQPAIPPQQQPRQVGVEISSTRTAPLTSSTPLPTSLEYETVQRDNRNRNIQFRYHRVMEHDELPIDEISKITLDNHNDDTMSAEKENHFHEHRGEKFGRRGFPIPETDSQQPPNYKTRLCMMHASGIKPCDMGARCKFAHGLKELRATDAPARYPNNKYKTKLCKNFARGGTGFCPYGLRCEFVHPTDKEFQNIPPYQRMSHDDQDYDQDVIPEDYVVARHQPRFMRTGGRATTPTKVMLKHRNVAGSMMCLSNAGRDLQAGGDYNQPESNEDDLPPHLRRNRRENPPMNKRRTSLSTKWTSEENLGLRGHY

[6] = biological target: T4, RNA-binding protein pos-1 (Caenorhabditis elegans, UniProt G5EF15); experiment: disruptors of C. elegans POS-1 RNA interaction – biochemical, fluorescence polarization, dose response (AID 1964);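 note: purified POS-1 fused to maltose binding protein made in E. coli; potency of compounds blocking POS-1 binding to fluorescent RNA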
T4 sequence (G5EF15 whole entry): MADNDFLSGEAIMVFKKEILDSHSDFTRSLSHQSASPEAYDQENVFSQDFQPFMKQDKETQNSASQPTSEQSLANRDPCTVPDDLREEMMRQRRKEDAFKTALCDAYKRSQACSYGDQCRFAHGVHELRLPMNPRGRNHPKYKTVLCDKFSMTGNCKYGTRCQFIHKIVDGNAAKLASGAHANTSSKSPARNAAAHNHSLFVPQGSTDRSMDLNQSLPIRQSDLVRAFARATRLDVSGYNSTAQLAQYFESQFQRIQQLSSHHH

[7] = biological target: T5, Histone-lysine N-methyltransferase NSD2 (Homo sapiens, UniProt O96028); assay type: biochemical
T5 sequence (O96028 whole entry): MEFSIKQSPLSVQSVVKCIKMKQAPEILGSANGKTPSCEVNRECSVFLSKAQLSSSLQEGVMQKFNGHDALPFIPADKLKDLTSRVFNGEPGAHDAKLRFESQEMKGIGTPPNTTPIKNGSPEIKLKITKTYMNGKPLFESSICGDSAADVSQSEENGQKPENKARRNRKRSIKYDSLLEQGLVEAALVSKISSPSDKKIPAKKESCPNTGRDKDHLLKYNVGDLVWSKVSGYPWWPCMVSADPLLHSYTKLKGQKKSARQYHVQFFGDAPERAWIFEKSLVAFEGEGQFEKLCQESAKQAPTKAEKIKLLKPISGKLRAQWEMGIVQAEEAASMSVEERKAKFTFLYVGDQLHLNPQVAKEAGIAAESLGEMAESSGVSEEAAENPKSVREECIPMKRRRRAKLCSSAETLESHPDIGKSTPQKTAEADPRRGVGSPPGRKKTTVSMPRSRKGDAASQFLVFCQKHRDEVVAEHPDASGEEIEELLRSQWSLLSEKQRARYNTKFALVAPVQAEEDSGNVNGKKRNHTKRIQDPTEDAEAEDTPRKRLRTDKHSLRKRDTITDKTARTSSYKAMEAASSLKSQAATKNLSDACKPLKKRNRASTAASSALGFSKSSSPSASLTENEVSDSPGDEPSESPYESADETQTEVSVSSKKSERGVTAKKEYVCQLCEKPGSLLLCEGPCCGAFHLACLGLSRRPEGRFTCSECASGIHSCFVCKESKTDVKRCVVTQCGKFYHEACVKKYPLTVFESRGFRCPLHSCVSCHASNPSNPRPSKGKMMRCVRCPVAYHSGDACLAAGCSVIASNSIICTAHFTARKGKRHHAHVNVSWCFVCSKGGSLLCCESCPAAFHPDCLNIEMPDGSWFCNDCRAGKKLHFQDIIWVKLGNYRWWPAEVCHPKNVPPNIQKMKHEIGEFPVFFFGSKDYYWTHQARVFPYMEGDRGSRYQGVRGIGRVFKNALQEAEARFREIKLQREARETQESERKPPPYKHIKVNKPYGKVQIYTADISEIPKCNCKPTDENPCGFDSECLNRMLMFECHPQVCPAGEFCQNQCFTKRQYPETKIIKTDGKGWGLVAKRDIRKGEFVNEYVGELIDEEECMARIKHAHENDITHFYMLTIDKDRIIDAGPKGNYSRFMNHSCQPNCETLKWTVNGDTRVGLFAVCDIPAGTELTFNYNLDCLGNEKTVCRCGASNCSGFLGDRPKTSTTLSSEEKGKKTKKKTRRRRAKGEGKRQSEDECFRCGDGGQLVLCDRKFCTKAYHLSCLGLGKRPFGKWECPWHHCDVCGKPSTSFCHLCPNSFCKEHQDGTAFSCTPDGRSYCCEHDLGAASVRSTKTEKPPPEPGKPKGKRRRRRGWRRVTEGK

[8] = biological target: T6, Polyadenylate-binding protein 1 (Homo sapiens, UniProt P11940); experiment: MLLE domain peptide-binding blockers, IC50 – biochemical, fluorescence polarization, FITC-PAM2 peptide, dose response (AID 602259); assay type: functional; conditions: read-out: IC50_Mean
[9] = biological target: T7, Voltage-gated N-type calcium channel alpha-1B subunit/Amyloid beta A4 precursor protein-binding family A member 1 (Homo sapiens, UniProt Q00975+Q02410); assay type: protein assay
[10] = biological target: T6, Polyadenylate-binding protein 1; experiment: MLLE binding blockers, Cy5 peptide tracer – biochemical, fluorescence polarization, Cy5-PAM2 peptide, secondary, miRNA deadenylation inhibitor project, dose response (AID 602260); assay type: functional; conditions: read-out: IC50_Mean
[11] = biological target: T7, Voltage-gated N-type calcium channel alpha-1B subunit/Amyloid beta A4 precursor protein-binding family A member 1; assay type: protein assay; remark: listed apart in the source
[12] = biological target: Induced myeloid leukemia cell differentiation protein Mcl-1 (Homo sapiens, UniProt Q07820); assay type: functional
Cytochrome P450 3A4 = Cytochrome P450 3A4 (Homo sapiens, UniProt P08684); conditions: Potency;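 note: confirmatory qHTS run detecting inhibitors and substrates of CYP3A4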
Cytochrome P450 2C9 = Cytochrome P450 2C9 (Homo sapiens, UniProt P11712); conditions: Potency
Cytochrome P450 2C9, sequence (P11712 whole entry): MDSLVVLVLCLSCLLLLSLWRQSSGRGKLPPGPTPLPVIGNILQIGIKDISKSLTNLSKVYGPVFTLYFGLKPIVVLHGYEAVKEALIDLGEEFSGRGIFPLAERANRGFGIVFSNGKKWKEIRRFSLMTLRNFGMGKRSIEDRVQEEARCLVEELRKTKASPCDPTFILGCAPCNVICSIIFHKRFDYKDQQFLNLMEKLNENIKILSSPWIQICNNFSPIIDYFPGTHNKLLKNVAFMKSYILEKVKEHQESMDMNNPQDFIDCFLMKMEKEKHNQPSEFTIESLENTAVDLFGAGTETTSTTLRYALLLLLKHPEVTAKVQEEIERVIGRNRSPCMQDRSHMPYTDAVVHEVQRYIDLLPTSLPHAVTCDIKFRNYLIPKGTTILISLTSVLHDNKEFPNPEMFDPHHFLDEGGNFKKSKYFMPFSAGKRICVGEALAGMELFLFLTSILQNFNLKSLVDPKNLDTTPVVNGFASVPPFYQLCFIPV

T7 sequence (Q00975 whole entry): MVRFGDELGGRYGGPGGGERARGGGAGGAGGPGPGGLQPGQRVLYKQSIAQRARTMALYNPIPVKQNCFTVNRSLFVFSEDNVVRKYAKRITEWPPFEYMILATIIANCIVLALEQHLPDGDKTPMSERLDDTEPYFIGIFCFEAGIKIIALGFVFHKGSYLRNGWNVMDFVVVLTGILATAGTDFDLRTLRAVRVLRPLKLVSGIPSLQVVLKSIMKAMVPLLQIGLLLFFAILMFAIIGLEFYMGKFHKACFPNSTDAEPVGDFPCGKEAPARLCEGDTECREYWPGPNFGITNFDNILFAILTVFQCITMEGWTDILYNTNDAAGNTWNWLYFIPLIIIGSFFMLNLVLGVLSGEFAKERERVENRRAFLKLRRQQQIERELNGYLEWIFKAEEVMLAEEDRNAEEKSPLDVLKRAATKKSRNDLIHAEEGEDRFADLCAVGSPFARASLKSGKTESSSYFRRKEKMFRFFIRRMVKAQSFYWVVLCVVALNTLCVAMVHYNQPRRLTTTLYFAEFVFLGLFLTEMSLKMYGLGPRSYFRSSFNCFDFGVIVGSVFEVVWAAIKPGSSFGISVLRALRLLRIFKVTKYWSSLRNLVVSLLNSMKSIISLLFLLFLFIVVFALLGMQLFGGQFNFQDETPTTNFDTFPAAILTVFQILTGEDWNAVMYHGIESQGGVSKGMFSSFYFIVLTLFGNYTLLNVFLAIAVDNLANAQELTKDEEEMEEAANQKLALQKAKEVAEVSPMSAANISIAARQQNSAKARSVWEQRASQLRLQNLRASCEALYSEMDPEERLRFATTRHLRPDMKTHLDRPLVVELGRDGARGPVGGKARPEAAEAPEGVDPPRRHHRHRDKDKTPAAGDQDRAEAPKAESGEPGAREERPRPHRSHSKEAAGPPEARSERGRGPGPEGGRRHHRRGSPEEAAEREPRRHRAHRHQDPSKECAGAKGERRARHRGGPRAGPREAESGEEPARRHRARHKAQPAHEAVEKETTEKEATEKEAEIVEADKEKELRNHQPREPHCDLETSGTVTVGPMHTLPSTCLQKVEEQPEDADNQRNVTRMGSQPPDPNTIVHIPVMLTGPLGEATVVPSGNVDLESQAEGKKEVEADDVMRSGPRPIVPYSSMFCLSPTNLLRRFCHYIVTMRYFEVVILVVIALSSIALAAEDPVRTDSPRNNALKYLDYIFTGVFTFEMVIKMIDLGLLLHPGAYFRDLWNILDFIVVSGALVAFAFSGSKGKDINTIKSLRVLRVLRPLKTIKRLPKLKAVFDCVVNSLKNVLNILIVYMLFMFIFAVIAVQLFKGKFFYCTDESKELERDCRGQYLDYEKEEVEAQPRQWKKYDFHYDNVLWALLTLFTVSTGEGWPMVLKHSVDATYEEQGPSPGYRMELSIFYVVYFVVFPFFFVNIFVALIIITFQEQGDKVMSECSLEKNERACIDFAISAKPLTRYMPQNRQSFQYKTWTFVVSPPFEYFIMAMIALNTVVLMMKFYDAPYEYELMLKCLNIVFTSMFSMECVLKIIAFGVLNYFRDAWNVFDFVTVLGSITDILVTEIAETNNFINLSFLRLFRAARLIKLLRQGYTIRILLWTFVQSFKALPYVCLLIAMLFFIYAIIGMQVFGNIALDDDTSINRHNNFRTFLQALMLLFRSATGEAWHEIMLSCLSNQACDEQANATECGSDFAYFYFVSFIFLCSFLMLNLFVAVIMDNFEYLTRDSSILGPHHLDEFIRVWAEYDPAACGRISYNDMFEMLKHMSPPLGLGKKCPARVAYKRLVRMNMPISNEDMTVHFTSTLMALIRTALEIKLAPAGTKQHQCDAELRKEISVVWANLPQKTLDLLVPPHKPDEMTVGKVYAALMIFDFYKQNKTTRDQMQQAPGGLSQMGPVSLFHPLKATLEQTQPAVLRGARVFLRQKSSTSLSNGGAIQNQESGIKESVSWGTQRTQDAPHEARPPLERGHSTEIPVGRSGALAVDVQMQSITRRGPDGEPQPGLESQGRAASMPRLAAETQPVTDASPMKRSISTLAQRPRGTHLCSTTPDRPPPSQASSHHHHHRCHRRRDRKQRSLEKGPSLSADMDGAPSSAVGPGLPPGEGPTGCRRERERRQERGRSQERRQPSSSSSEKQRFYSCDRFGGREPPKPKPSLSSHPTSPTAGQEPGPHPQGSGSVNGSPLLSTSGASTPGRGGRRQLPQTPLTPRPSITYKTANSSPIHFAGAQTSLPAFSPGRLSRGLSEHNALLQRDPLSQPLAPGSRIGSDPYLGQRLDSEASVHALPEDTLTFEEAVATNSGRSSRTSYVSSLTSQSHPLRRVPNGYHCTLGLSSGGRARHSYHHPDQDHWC
T7 sequence (Q02410 whole entry): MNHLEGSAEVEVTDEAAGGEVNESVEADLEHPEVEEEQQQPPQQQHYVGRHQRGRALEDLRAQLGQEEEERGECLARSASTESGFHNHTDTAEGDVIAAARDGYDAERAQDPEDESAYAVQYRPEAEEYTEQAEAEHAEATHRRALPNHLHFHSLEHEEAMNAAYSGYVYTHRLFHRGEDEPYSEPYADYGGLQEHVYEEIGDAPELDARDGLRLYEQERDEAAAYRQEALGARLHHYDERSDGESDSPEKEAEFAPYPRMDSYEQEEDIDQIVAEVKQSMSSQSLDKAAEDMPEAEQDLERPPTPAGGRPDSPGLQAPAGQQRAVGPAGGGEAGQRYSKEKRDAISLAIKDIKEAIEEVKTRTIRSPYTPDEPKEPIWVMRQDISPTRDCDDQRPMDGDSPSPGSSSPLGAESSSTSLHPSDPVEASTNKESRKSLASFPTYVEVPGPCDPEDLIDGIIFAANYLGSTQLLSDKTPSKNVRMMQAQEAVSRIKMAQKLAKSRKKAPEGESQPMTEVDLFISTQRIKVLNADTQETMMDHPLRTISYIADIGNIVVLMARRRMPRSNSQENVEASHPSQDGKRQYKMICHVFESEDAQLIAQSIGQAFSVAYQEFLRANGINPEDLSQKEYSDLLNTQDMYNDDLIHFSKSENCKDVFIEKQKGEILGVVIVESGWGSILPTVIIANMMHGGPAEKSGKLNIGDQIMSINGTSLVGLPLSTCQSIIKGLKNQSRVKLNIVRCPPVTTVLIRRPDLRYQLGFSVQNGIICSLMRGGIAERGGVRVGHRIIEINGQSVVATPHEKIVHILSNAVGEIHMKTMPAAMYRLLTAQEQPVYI
Cytochrome P450 3A4, sequence (P08684 whole entry): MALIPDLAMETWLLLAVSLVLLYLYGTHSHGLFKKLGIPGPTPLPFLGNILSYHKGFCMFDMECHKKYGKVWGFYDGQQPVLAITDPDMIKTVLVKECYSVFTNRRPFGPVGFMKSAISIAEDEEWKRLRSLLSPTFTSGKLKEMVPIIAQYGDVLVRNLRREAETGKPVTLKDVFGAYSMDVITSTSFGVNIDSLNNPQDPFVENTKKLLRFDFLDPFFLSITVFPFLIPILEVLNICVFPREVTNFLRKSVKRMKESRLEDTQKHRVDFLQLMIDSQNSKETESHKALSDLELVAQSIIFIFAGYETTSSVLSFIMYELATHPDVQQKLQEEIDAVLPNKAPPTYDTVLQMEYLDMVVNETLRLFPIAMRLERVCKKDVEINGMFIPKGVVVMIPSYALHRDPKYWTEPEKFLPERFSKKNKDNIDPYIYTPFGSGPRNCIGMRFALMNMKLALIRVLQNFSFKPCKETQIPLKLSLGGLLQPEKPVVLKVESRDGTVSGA
T6 sequence (P11940 whole entry, the tested form may be a part): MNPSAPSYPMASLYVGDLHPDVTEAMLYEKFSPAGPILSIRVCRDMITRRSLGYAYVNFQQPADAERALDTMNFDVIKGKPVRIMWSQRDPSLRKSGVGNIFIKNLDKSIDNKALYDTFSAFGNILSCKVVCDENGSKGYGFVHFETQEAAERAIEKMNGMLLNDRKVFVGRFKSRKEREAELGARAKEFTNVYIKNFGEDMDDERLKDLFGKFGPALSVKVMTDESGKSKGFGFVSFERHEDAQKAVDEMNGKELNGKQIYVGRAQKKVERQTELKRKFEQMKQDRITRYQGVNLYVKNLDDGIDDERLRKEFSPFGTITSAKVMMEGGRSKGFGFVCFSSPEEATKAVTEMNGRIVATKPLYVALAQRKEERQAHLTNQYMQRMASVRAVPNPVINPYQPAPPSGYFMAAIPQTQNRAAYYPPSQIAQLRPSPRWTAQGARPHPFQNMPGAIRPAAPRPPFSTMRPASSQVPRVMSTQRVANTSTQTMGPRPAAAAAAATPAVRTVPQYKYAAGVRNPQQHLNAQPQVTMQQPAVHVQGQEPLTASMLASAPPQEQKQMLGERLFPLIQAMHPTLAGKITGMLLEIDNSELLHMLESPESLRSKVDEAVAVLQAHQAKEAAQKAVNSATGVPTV

COC(=O)c1ccc(OC)c(S(=O)(=O)Nc2ccc3ccccc3c2)c1
IC50 [1]: > 10 µM (inactive) | IC50 [2]: > 10 µM (inconclusive)

CCN(CC)Cc1cc(O)c(CN(CC)CC)cc1O
IC50 (Genome polyprotein): 28.1 µM (active) | CC50 (Vero [3]): > 40 µM (active) | IC50 (Hexokinase HKDC1): 17.4 µM (active) | CC50 (Vero [4]): > 25 µM (active) | EC50 [5]: 2.77 µM (active) | EC50 [6]: 14.2 µM (active) | AC50 [7]: > 20 µM (inactive) | IC50 [8]: > 66 µM (inactive) | IC50 [9]: 2.05 µM (active) | IC50 [10]: > 66 µM (inactive) | IC50 [11]: > 56.8 µM (not active) | IC50 [12]: 1.58 µM (active)

COc1ccc(OC2C(O)COC2/C=C/c2ccccc2)cc1 (stereo unspecified)
AC50 (Cytochrome P450 3A4): 3.16 µM (inconclusive) and 3.98 µM (inconclusive) | AC50 (Cytochrome P450 2C9): 3.16 µM (inconclusive) and 2.51 µM (inconclusive)

From ChEMBL document CHEMBL1201862, “PubChem BioAssay data set” (2004)
